PubChem BioAssay (NCI)
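Tested at 5 concentrations; 48 h exposure; 96-well plates; endpoints linearly interpolated, else capped at highest concentration. The concentration for 50% growth inhibition is given as GI50. Definition used: TGI = concentration required for complete inhibition of growth.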

What was measured:
Test in all cases: inhibition of tumour cell growth, NCI panel, 48 h; in the data active = GI50 below about 0.43 µM; inactive = the rest
[1] = system: SNB-75 CNS
[2] = system: EKVX NSCLC
[3] = system: HOP-92 NSCLC
[4] = system: CAKI-1 renal
[5] = system: SNB-19 CNS
[6] = system: 786-0 renal
[7] = system: TK-10 renal
[8] = system: NCI-H522 lung
[9] = system: K-562 leukemia
[10] = system: UACC-62 melanoma
[11] = system: NCI/ADR-RES ovarian
[12] = system: SN12C renal
[13] = system: DU-145 prostate
[14] = system: SF-539 CNS
[15] = system: HCC-2998 colon
[16] = system: U251 CNS
[17] = system: SF-295 CNS
[18] = system: M14 melanoma
[19] = system: HCT-116 colon
[20] = system: A549 NSCLC
[21] = system: SW-620 colon
[22] = system: SK-MEL-2 melanoma
[23] = system: COLO 205 colon
[24] = system: LOX IMVI melanoma
[25] = system: ACHN renal
[26] = system: RXF 393 renal
[27] = system: HCT-15 colon
[28] = system: UO-31 renal
[29] = system: SK-MEL-5 melanoma
[30] = system: OVCAR-3 ovarian
[31] = system: IGROV1 ovarian
[32] = system: KM12 colon
[33] = system: BT-549 breast
[34] = system: UACC-257 melanoma
[35] = system: NCI-H460 lung
[36] = system: HOP-62 NSCLC
[37] = system: MDA-MB-231 breast
[38] = system: OVCAR-4 ovarian
[39] = system: MDA-MB-435
[40] = system: PC-3 prostate
[41] = system: OVCAR-5 ovarian
[42] = system: SK-OV-3 ovarian
[43] = system: SK-MEL-28 melanoma
[44] = system: T-47D breast
[45] = system: RPMI-8226 leukemia
[46] = system: HS 578T breast
[47] = system: OVCAR-8 ovarian

Nc1nc(Cl)cc(OCC2(CO)CCC2)n1
inactive: GI50 [1] 68.4 µM | GI50 [2] 60.6 µM | GI50 [3] 51.3 µM

COc1cc2c(cc1OC)-c1ncc3c(OC)ccc(OC)c3c1C2
42.4 µM: TGI [46]
33.4 µM: TGI [14]
79 µM: TGI [22]
60 µM: TGI [28]
56.4 µM: TGI [16]
61.3 µM: TGI [36]
32.5 µM: TGI [33]
inactive: GI50 [4] 14.4 µM | GI50 [5] 42.3 µM | GI50 [6] 49.2 µM | GI50 [7] 16.8 µM | GI50 [8] 2.94 µM | GI50 [9] 12.3 µM | GI50 [10] 18 µM | GI50 [1] > 100 µM | GI50 [11] 23.6 µM | GI50 [12] 14.8 µM | GI50 [13] 28.1 µM | GI50 [14] 14 µM | GI50 [15] 22.6 µM | GI50 [16] 14.6 µM | GI50 [17] 12.1 µM | GI50 [18] > 100 µM | GI50 [19] 17.8 µM | GI50 [20] 16.1 µM | GI50 [21] 35.1 µM | GI50 [2] 16.9 µM | GI50 [22] 27.3 µM | GI50 [23] 42.7 µM | GI50 [24] 16.7 µM | GI50 [25] 24 µM | GI50 [26] 16.4 µM | GI50 [27] 9.93 µM | GI50 [28] 18.3 µM | GI50 [29] 12.4 µM | GI50 [30] 15.4 µM | GI50 [31] 13.9 µM | GI50 [32] 16.5 µM | GI50 [33] 11.1 µM | GI50 [34] 19.7 µM | GI50 [35] 20.9 µM | GI50 [36] 21.4 µM | GI50 [37] > 100 µM | GI50 [38] 71.9 µM | GI50 [39] 23.4 µM | GI50 [40] 26.5 µM | GI50 [41] 44 µM | GI50 [42] 37.3 µM | GI50 [43] > 100 µM | GI50 [44] 29 µM | GI50 [45] 6.44 µM | GI50 [3] 39.4 µM | GI50 [46] 8.05 µM | GI50 [47] 2.36 µM
43.6 µM: TGI [7]
> 100 µM: TGI [4] | TGI [5] | TGI [6] | TGI [10] | TGI [1] | TGI [11] | TGI [13] | TGI [15] | TGI [18] | TGI [19] | TGI [20] | TGI [21] | TGI [23] | TGI [24] | TGI [25] | TGI [27] | TGI [35] | TGI [37] | TGI [38] | TGI [40] | TGI [41] | TGI [43] | TGI [44] | TGI [3]
46.8 µM: TGI [30]
98.7 µM: TGI [42]
48.9 µM: TGI [26]
99.6 µM: TGI [39]
38.2 µM: TGI [47]
83.7 µM: TGI [32]
82 µM: TGI [9]
78.2 µM: TGI [45]
42.7 µM: TGI [17]
58 µM: TGI [12]
55.4 µM: TGI [34]
31.8 µM: TGI [8]
34.3 µM: TGI [29]
54.9 µM: TGI [2]
48.5 µM: TGI [31]
